Key:
DGKκ = molecular target: T1, DGKκ (Homo sapiens, UniProt Q5KSL6); assay: free ATP; type: cell-based
T1 sequence (Q5KSL6 1-1271): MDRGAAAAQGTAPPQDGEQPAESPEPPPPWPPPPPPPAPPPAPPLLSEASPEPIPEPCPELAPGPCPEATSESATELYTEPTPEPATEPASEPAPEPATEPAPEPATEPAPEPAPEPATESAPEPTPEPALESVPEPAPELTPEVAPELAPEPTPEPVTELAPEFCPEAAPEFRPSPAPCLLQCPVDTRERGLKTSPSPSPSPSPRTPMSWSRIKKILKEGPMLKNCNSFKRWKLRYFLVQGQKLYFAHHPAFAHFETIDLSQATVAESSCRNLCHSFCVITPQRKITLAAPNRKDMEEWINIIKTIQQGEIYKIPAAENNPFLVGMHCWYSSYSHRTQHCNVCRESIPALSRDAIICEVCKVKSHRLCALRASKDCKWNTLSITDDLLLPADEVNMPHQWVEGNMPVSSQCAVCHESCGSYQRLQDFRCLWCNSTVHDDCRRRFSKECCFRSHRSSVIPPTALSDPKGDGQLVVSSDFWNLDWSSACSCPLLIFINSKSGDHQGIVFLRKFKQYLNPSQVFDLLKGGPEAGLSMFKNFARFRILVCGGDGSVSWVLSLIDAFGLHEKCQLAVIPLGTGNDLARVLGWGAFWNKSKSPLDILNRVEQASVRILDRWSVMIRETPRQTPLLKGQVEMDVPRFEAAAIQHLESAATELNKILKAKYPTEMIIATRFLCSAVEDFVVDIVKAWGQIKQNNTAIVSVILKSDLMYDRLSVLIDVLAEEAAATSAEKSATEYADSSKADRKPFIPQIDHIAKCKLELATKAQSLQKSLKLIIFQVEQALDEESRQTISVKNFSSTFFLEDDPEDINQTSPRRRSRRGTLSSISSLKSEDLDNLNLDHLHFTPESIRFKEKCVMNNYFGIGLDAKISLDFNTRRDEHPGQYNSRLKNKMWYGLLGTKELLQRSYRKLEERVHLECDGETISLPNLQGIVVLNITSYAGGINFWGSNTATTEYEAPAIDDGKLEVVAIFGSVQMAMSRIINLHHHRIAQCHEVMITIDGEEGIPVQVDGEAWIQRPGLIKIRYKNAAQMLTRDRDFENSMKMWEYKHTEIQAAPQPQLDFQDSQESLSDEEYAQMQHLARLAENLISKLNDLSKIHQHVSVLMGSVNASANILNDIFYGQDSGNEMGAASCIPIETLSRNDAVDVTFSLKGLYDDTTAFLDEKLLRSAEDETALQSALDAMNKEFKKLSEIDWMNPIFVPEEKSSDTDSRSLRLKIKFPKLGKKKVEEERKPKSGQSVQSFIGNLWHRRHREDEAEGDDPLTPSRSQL

DGKζ = DGKζ (Homo sapiens, UniProt Q13574); assay: free ATP; type: cell-based
DGKθ = molecular target: T2, DGKθ (Homo sapiens, UniProt P52824); assay: free ATP; type: cell-based
T2 sequence (P52824 1-942): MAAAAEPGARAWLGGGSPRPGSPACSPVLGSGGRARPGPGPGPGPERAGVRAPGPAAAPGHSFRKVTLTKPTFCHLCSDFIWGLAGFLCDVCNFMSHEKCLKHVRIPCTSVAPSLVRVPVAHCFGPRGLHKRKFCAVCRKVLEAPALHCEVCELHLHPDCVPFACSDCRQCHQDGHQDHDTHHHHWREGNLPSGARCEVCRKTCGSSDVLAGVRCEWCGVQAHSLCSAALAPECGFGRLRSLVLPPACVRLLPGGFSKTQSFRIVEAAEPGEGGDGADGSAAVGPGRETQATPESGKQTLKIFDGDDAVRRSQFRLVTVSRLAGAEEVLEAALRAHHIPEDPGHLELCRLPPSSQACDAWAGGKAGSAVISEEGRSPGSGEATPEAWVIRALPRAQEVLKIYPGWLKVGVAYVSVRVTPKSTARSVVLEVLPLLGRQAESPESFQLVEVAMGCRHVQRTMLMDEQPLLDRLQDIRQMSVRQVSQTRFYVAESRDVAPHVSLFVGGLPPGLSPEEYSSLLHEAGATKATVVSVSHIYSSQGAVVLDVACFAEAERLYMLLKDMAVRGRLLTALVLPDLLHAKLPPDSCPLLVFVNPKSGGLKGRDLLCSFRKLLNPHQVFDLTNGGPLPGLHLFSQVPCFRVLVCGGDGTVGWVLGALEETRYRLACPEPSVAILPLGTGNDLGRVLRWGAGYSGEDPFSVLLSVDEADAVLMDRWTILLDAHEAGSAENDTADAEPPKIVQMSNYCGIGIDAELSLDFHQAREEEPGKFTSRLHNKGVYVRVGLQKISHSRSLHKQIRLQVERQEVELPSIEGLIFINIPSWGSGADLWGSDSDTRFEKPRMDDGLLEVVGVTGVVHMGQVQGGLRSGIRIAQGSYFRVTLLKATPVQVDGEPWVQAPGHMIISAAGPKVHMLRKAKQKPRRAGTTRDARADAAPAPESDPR

FER [1] = molecular target: T3, FER (Homo sapiens, UniProt P16591); assay: free ATP competition with ATP acyl phosphate probe, SILAC LC-MS; type: cell-based
DGKα = DGKα (Rattus norvegicus, UniProt P51556); assay: ADP-Glo DAG phosphorylation assay in lysate; type: biochemical
FER [2] = molecular target: T3, FER; assay: ATP acyl phosphate probe competition, SILAC LC-MS; type: cell-based

T3 sequence (P16591 whole entry): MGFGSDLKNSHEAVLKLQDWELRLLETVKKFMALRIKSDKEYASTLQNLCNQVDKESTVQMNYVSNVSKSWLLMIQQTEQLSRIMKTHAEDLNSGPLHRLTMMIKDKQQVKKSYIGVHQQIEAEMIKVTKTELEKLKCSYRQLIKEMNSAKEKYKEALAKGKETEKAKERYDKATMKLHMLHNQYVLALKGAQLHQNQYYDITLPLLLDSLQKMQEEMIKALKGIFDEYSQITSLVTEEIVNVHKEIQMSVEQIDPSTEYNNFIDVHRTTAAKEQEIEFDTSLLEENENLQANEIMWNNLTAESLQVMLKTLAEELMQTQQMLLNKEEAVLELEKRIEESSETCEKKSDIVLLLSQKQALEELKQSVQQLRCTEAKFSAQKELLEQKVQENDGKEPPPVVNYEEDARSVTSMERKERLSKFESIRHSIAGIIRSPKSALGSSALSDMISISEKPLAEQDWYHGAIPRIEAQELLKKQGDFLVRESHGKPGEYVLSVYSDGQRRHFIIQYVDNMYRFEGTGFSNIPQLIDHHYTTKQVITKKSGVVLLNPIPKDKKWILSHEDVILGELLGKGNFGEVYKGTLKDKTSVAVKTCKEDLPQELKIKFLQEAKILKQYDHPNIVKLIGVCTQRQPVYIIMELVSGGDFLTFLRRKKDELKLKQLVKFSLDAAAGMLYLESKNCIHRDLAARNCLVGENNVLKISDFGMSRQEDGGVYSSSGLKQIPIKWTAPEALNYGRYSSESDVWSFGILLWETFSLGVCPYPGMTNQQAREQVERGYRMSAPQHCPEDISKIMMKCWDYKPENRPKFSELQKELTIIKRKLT
Chain of DGKζ (Q13574 whole entry): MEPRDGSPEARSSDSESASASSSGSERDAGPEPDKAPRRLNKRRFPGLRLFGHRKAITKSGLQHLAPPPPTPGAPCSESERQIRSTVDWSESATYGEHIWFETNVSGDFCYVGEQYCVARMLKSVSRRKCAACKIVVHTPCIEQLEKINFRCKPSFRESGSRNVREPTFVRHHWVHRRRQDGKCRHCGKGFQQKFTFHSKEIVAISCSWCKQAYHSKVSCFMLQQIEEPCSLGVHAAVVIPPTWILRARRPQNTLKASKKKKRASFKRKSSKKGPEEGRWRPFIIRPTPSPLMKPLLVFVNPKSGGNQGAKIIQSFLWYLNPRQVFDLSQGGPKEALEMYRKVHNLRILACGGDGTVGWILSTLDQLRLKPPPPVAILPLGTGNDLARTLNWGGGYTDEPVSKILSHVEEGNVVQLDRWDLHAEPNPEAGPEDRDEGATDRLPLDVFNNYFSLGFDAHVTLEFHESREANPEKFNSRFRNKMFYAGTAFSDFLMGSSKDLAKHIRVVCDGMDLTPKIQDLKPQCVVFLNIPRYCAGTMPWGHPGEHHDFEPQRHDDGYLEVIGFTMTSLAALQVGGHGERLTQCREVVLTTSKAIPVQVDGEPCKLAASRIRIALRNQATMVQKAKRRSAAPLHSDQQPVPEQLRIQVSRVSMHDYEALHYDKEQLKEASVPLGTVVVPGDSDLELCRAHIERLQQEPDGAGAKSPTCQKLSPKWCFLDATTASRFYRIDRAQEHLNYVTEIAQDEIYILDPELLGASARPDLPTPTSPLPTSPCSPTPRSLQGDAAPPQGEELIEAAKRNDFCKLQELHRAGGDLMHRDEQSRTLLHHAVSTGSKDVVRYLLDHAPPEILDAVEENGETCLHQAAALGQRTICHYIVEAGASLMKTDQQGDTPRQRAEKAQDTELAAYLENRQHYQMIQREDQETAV
Chain of DGKα (P51556 whole entry): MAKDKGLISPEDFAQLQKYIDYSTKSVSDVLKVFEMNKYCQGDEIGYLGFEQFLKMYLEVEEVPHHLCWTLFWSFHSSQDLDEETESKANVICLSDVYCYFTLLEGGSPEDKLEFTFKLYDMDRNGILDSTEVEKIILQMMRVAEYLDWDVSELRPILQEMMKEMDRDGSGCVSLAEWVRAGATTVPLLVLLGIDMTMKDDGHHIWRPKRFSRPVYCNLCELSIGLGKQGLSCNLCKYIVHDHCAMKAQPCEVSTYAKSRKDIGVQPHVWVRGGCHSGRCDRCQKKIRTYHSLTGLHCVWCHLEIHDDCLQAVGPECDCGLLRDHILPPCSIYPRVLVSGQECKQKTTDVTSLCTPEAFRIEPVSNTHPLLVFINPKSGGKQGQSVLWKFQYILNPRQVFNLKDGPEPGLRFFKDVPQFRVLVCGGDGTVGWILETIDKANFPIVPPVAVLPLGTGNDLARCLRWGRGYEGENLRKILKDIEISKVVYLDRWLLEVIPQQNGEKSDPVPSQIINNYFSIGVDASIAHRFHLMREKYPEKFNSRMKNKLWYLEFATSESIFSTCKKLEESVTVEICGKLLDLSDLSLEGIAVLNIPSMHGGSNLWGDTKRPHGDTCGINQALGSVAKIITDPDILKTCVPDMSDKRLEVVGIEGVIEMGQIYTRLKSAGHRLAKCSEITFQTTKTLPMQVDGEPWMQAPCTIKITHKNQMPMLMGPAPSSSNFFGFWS

Nc1ncnc2c1ncn2[C@@H]1O[C@H](COP(=O)(O)OP(=O)(O)OP(=O)(O)O)[C@@H](O)[C@H]1O [ATP]
free ATP (1 mM) competition with ATP acyl phosphate probe, SILAC LC-MS (DGKκ): 15.0 | free ATP (1 mM) competition with ATP acyl phosphate probe, SILAC LC-MS (DGKζ): 16.7 | free ATP (1 mM) competition with ATP acyl phosphate probe, SILAC LC-MS (DGKθ): 14.4 | free ATP competition with ATP acyl phosphate probe, SILAC LC-MS (FER [1]): 19.3

Fc1ccc(C(=C2CCNCC2)c2ccc(F)cc2)cc1 [RF001]
IC50 (DGKα): 223 µM

Cc1nc2sccn2c(=O)c1CCN1CCC(=C(c2ccc(F)cc2)c2ccc(F)cc2)CC1 [ritanserin]
ATP acyl phosphate probe competition, SILAC LC-MS (100 μM compound, SR = 7.9) (FER [2]): 7.9
